Measured values published in patent EP3323415A1, “TREATMENT OF NEURODEGENERATIVE DISEASES” (Institut du Cerveau et de la Moelle Épinière-ICM, priority 2016, dated 2018).

System: midbrain DA (TH^+) neurons
Test: Spontaneous dopaminergic (DA) cell death model in midbrain cultures
Type: cell-based, Wistar rat
Conditions: chronic treatments for 10 days
Description: Animals were treated in accordance with the Guide for the Care and Use of Laboratory Animals (National Research Council, 1996), European Directive 86/609, and the guidelines of the local institutional animal care and use committee. Cultures were prepared from the ventral mesencephalon of gestational age 15.5 Wistar rat embryos (Janvier Breeding Center, Le Genest St Isle, France). Dissociated cells in suspension obtained by mechanical trituration of midbrain tissue pieces were seeded at a density of 1.2-1.5 10^5 cells/ cm^2 onto tissue culture supports precoated with 1 mg/ml polyethylenimine diluted in borate buffer pH 8.3 as described (Michel PP, et al., J Neurochem. 1997 Oct;69(4):1499-507). The cultures were then maintained in N5 medium supplemented with 5 mM glucose, 5% horse serum, and 0.5% fetal calf serum, except for the first 3 days in vitro (DIV), when the concentration of fetal calf serum was 2.5% to favor initial maturation of the cultures (Guerreiro S, et al., Mol Pharmacol. 2008 Oct;74(4):980-9). They were fed daily by replacing 70% of the medium. […]
We used a model system in which DA cell loss was spontaneous. […] For the spontaneous dopaminergic cell death model, TH^+ neurons were counted while for the neuro-inflammation model, the number of microglial cells was evaluated. […]

| Compound | optimal neuroprotective concentrations |
| --- | --- |
| Nc1ncnc2c1ncn2[C@@H]1O[C@H](COP(=O)(O)OP(=O)(O)OC[C@H]2O[C@@H]([n+]3cccc(C(=O)[O-])c3)[C@H](O)[C@@H]2O)[C@@H](O)[C@H]1OP(=O)(O)O [compound 1, 1-[(2R,3R,4S,5R)-5-[[[[(2R,3R,4R,5R)-5-(6-aminopurin-9-yl)-3-hydroxy-4-phosphonooxyoxolan-2-yl]methoxy-hydroxyphosphoryl]oxy-hydroxyphosphoryl]oxymethyl]-3,4-dihydroxyoxolan-2-yl]pyridin-1-ium-3-carboxylic acid] | 30 µM |
| CC(=O)OCOC(=O)c1ccc[n+]([C@@H]2O[C@H](COP(=O)(O)OP(=O)(OCOC(C)=O)OC[C@H]3O[C@@H](n4cnc5c(N)ncnc54)[C@H](OP(=O)(OCOC(C)=O)OCOC(C)=O)[C@@H]3O)[C@@H](O)[C@H]2O)c1 (stereo partly drawn) [compound 2, 1-((2R,3R,4S,5R)-5-((((((acetoxymethoxy)(((2R,3R,4R,5R)-5-(6-amino-9H-purin-9-yl)-4-((bis(acetoxymethoxy)phosphoryl)oxy)-3-hydroxytetrahydrofuran-2-yl)methoxy)phosphoryl)oxy)(hydroxy)phosphoryl)oxy)methyl)-3,4-dihydroxytetrahydrofuran-2-yl)-3-((acetoxymethoxy)carbonyl)pyridin-1-ium] | 1 µM |
